System: A549 (Human lung cancer cell line)
Test: Effect of combination of sulfonamide compound and other antitumor agent (CellTiter-Glo, combination index): A549
[1] = Example Compound 1 281 nM + Fludarabine nucleoside 5920 nM, molar ratio 1:21.08
[2] = Example Compound 1 281 nM + Prexasertib 1.97 nM, molar ratio 1:0.007018
[3] = Example Compound 1 281 nM + SCH900776 908 nM, molar ratio 1:3.232
[4] = Example Compound 1 422 nM + AZD6738 1040 nM, molar ratio 1:2.455
[5] = Example Compound 1 422 nM + Cytarabine 108 nM, molar ratio 1:0.2566
[6] = Example Compound 1 422 nM + Fludarabine nucleoside 8900 nM, molar ratio 1:21.08
[7] = Example Compound 1 422 nM + Prexasertib 2.96 nM, molar ratio 1:0.007018
[8] = Example Compound 1 422 nM + SCH900776 1360 nM, molar ratio 1:3.232
[9] = Example Compound 1 633 nM + AZD6738 1550 nM, molar ratio 1:2.455
[10] = Example Compound 1 633 nM + Fludarabine nucleoside 13300 nM, molar ratio 1:21.08
[11] = Example Compound 1 633 nM + Guadecitabine 489 nM, molar ratio 1:0.7725
[12] = Example Compound 1 633 nM + Prexasertib 4.44 nM, molar ratio 1:0.007018
[13] = Example Compound 1 633 nM + SCH900776 2050 nM, molar ratio 1:3.232
[14] = Example Compound 1 949 nM + AZD6738 2330 nM, molar ratio 1:2.455
[15] = Example Compound 1 949 nM + Azacytidine 2740 nM, molar ratio 1:2.885
[16] = Example Compound 1 949 nM + Cytarabine 244 nM, molar ratio 1:0.2566
[17] = Example Compound 1 949 nM + Decitabine 2000 nM, molar ratio 1:2.108
[18] = Example Compound 1 949 nM + Fludarabine nucleoside 20000 nM, molar ratio 1:21.08
[19] = Example Compound 1 949 nM + Guadecitabine 733 nM, molar ratio 1:0.7725
[20] = Example Compound 1 949 nM + Prexasertib 6.66 nM, molar ratio 1:0.007018
[21] = Example Compound 1 949 nM + SCH900776 3070 nM, molar ratio 1:3.232
[22] = Example Compound 1 949 nM + Sunitinib 1870 nM, molar ratio 1:1.969
[23] = Example Compound 1 949 nM + Trifluridine 430 nM, molar ratio 1:0.4535
[24] = Example Compound 1 1420 nM + 5-Fluorouracil 2700 nM, molar ratio 1:1.900
[25] = Example Compound 1 1420 nM + AZD6738 3490 nM, molar ratio 1:2.455
[26] = Example Compound 1 1420 nM + Azacytidine 4100 nM, molar ratio 1:2.885
[27] = Example Compound 1 1420 nM + Cytarabine 364 nM, molar ratio 1:0.2566
[28] = Example Compound 1 1420 nM + Decitabine 2990 nM, molar ratio 1:2.108
[29] = Example Compound 1 1420 nM + Etoposide 3780 nM, molar ratio 1:2.663
[30] = Example Compound 1 1420 nM + Gemcitabine 8.37 nM, molar ratio 1:0.005895
[31] = Example Compound 1 1420 nM + Guadecitabine 1100 nM, molar ratio 1:0.7725
[32] = Example Compound 1 1420 nM + Lapatinib 5990 nM, molar ratio 1:4.216
[33] = Example Compound 1 1420 nM + Luminespib 13.5 nM, molar ratio 1:0.009473
[34] = Example Compound 1 1420 nM + Midostaurin 250 nM, molar ratio 1:0.1761
[35] = Example Compound 1 1420 nM + Olaparib 14800 nM, molar ratio 1:10.40
[36] = Example Compound 1 1420 nM + Oxaliplatin 1060 nM, molar ratio 1:0.7448
[37] = Example Compound 1 1420 nM + Sunitinib 2800 nM, molar ratio 1:1.969
[38] = Example Compound 1 1420 nM + Talazoparib 7980 nM, molar ratio 1:5.617
[39] = Example Compound 1 1420 nM + Trifluridine 644 nM, molar ratio 1:0.4535
[40] = Example Compound 1 2140 nM + Cabozantinib […], molar ratio 1:4.216
[41] = Example Compound 1 2140 nM + Carboplatin 79500 nM, molar ratio 1:37.17
[42] = Example Compound 1 2140 nM + Cisplatin 9620 nM, molar ratio 1:4.494
[43] = Example Compound 1 2140 nM + Trifluridine 970 nM, molar ratio 1:0.4535
[44] = Example Compound 1 3200 nM + Carboplatin 119000 nM, molar ratio 1:37.17
[45] = Example Compound 1 3200 nM + Cisplatin 14400 nM, molar ratio 1:4.494
[46] = Example Compound 1 4810 nM + Carboplatin 179000 nM, molar ratio 1:37.17

Description: Each cell line was seeded at 90 L/well to a 96-well culture plate (Thermo Fisher Scientific, Inc.) according to the above tables. The cell-seeded plate was cultured in an incubator set to 37° C. and 500 CO2. On the day following seeding, varying concentrations of the sulfonamide compound and the other antitumor agent were added in combination to the cells. […] The serial dilutions of each compound, or DW was added at 5μL/well to the plate such that each compound and DW, or the sulfonamide compound and the other antitumor agent were combined. […] The plate after the addition was cultured at 37° C. for 3 days under 5% CO2 conditions.
Three days later, CellTiter-Glo(R) 2.0 Reagent (Promega Corporation) was added at 100 μL/well, and the amount of luminescence was measured using a plate reader EnSpire(R) Multimode Plate Reader (PerkinElmer Co., Ltd.).
An average value from 3 wells was calculated as to each drug condition from the obtained data, and cell survival rate normalized against control wells supplemented with the vehicle (DW) was calculated. A Fa (fractional inhibition) value was calculated by subtracting the cell survival rate from 1.

How did the CI value [1] turn out when `Cc1ccc(F)c([C@@H](C)[C@H](NS(=O)(=O)c2ccc(Br)cc2C(N)=O)c2n[nH]c(=O)o2)c1C` [Example 1, 5-bromo-2-(N-((1 S,2R)-2-(6-fluoro-2,3-dimethylphenyl)-1-(5-oxo-4,5-dihydro-1,3,4-oxadiazol-2-yl)propyl)sulfamoyl)benzamide] was run?
Its CI value is 0.550.

What about the Fa value [1] of the same compound?
The Fa value was 0.2653.

And the CI value [2]?
The CI value was 0.349.

What about the Fa value [2] of the same compound?
Its Fa value is 0.3570.

And the CI value [3]?
The CI value was 0.196.

What about the Fa value [3] of the same compound?
The Fa value was 0.6117.

What about the CI value [4] of the same compound?
Its CI value is 0.449.

What about the Fa value [4] of the same compound?
Its Fa value is 0.5145.

And the CI value [5]?
The CI value was 0.770.

And the Fa value [5]?
Its Fa value is 0.4482.

And the CI value [6]?
The CI value was 0.388.

And the Fa value [6]?
The Fa value was 0.6824.

And the CI value [7]?
The CI value was 0.226.

And the Fa value [7]?
The Fa value was 0.7264.

And the CI value [8]?
Its CI value is 0.195.

And the Fa value [8]?
Its Fa value is 0.7479.

And the CI value [9]?
The CI value was 0.350.

And the Fa value [9]?
The Fa value was 0.7602.

And the CI value [10]?
The CI value was 0.367.

What about the Fa value [10] of the same compound?
The Fa value was 0.8650.

What about the CI value [11] of the same compound?
Its CI value is 0.471.

And the Fa value [11]?
Its Fa value is 0.4374.

And the CI value [12]?
Its CI value is 0.193.

What about the Fa value [12] of the same compound?
Its Fa value is 0.8863.

And the CI value [13]?
The CI value was 0.190.

And the Fa value [13]?
The Fa value was 0.8581.

What about the CI value [14] of the same compound?
Its CI value is 0.315.

What about the Fa value [14] of the same compound?
The Fa value was 0.8849.

And the CI value [15]?
Its CI value is 0.895.

What about the Fa value [15] of the same compound?
The Fa value was 0.5060.

What about the CI value [16] of the same compound?
The CI value was 0.461.

And the Fa value [16]?
Its Fa value is 0.7886.

What about the CI value [17] of the same compound?
The CI value was 0.501.

And the Fa value [17]?
The Fa value was 0.5507.

What about the CI value [18] of the same compound?
The CI value was 0.537.

And the Fa value [18]?
The Fa value was 0.8719.

What about the CI value [19] of the same compound?
Its CI value is 0.502.

And the Fa value [19]?
The Fa value was 0.5583.

And the CI value [20]?
Its CI value is 0.288.

What about the Fa value [20] of the same compound?
The Fa value was 0.8866.

And the CI value [21]?
The CI value was 0.257.

And the Fa value [21]?
Its Fa value is 0.8783.

And the CI value [22]?
Its CI value is 0.721.

What about the Fa value [22] of the same compound?
The Fa value was 0.6537.

What about the CI value [23] of the same compound?
The CI value was 0.890.

What about the Fa value [23] of the same compound?
The Fa value was 0.6005.

And the CI value [24]?
The CI value was 0.881.

And the Fa value [24]?
Its Fa value is 0.6426.

What about the CI value [25] of the same compound?
Its CI value is 0.482.

What about the Fa value [25] of the same compound?
Its Fa value is 0.8809.

And the CI value [26]?
Its CI value is 0.676.

What about the Fa value [26] of the same compound?
Its Fa value is 0.7364.

What about the CI value [27] of the same compound?
The CI value was 0.491.

What about the Fa value [27] of the same compound?
The Fa value was 0.8557.

And the CI value [28]?
The CI value was 0.583.

And the Fa value [28]?
The Fa value was 0.6575.

What about the CI value [29] of the same compound?
The CI value was 0.772.

What about the Fa value [29] of the same compound?
Its Fa value is 0.6999.

What about the CI value [30] of the same compound?
Its CI value is 0.858.

And the Fa value [30]?
The Fa value was 0.8410.

And the CI value [31]?
The CI value was 0.563.

What about the Fa value [31] of the same compound?
The Fa value was 0.6756.

And the CI value [32]?
The CI value was 0.480.

What about the Fa value [32] of the same compound?
The Fa value was 0.8412.

What about the CI value [33] of the same compound?
Its CI value is 0.894.

What about the Fa value [33] of the same compound?
The Fa value was 0.7741.

What about the CI value [34] of the same compound?
The CI value was 0.871.

What about the Fa value [34] of the same compound?
Its Fa value is 0.7361.

And the CI value [35]?
Its CI value is 0.761.

What about the Fa value [35] of the same compound?
Its Fa value is 0.6398.

What about the CI value [36] of the same compound?
The CI value was 0.831.

And the Fa value [36]?
The Fa value was 0.7172.

What about the CI value [37] of the same compound?
Its CI value is 0.688.

And the Fa value [37]?
Its Fa value is 0.8162.

What about the CI value [38] of the same compound?
Its CI value is 0.661.

And the Fa value [38]?
The Fa value was 0.6630.

And the CI value [39]?
The CI value was 0.717.

What about the Fa value [39] of the same compound?
The Fa value was 0.8230.

What about the CI value [40] of the same compound?
Its CI value is 0.790.

And the Fa value [40]?
Its Fa value is 0.9173.

What about the CI value [41] of the same compound?
The CI value was 0.632.

What about the Fa value [41] of the same compound?
The Fa value was 0.9198.

And the CI value [42]?
The CI value was 0.848.

What about the Fa value [42] of the same compound?
Its Fa value is 0.9125.

And the CI value [43]?
Its CI value is 0.761.

And the Fa value [43]?
Its Fa value is 0.8988.

What about the CI value [44] of the same compound?
The CI value was 0.502.

What about the Fa value [44] of the same compound?
Its Fa value is 0.9734.

And the CI value [45]?
Its CI value is 0.694.

And the Fa value [45]?
The Fa value was 0.9675.

And the CI value [46]?
Its CI value is 0.569.

What about the Fa value [46] of the same compound?
Its Fa value is 0.9841.
